# US10921397B2, “Hyperpolarized micro-NMR system and methods” (Memorial Sloan Kettering Cancer Center, priority 2016, dated 2021)
# Legend:
# LDH-A = assay: Western blot of LDH-A phosphorylation in K562 cells after treatment; type: cell-based; settings: imatinib treatment, 24 hours
# Description: Imatinib was purchased from Cayman Chemical.
# K562 cells [1] = settings: 24 hours of drug treatment, concentrations as high as 1 μM
# Procedure: K562 cells were plated with a concentration of 100,000 cells/mL in 10 mL complete RPMI media. […] Two sets of four flasks (two flasks per each sample) were prepared and stored in an incubator for 24 hours. Cell number and viability were checked after 24 hours, and cells were washed with complete RPMI media once and prepared for hyperpolarization experiments.
# The cell number and the viability were measured using CELLOMETER Mini cell counter (Nexcelom Bioscience); the cell suspension was mixed at 1:1 ratio with the trypan blue solution before the measurement. For each measurement, the cell suspension was diluted to make its concentration within a range of 0.8-2×10^6/mL.
# K562 cells [2] = assay: Lactate concentration (pool size) in cell culture media by conventional high-field NMR spectrometer; type: cell-based; settings: 1 μM imatinib
# Procedure: Each lactate signal was acquired by a conventional high-field NMR spectrometer. All measurements were performed in triplicate. Error bars show the standard deviation.
smiles,measurement,setting,value
"Cc1ccc(NC(=O)c2ccc(CN3CCN(C)CC3)cc2)cc1Nc1nccc(-c2cccnc2)n1 [imatinib, Imatinib]",phosphorylation of LDH-A,LDH-A,decreased phosphorylation
same,cell viability,K562 cells [1],not significantly changed
same,time required to make a significant change in the lactate pool size,K562 cells [2],about 12 hours
